Data taken from patent publication US20090191185A1, “Reducing Cancer Cell Invasion Using an Inhibitor of Toll Like Receptor Signaling” (THE UAB RESEARCH FOUNDATION, priority 2006, published 2009).
Entries after “also recorded” stand apart in the source; their conditions may differ. Oligonucleotides are written 5' to 3', each unit as a sugar letter and its base; * is a phosphorothioate linkage, no mark a phosphodiester; rarer units and linkages stand in square brackets, end groups in braces. Plain capitals give the bases only. d = 2'-deoxy (DNA)

Tests used:
Format in all cases: cell-based, human
[1] = tested on: MDA-MB-231 cells; assay: Matrigel invasion assay, MDA-MB-231 cells
Protocol: (§1) In vitro invasion assays. For the Matrigel-invasion assay the cells were plated at the density of 5×10^4 (MDA-MB-231, U373, D54MG), 15×10^4 (T47-D) or 30×10^4 (MCF-7) cells per upper well in 750 μl of normal culture medium (Virtanen et al., Cancer Res. 62:2708-14 (2002)), indicated concentrations of the various CpG-ODNs, non-CpG-ODNs or vehicle were added to both the upper and lower wells. When indicated, aprotinin (2 μM), GM6001 (2 μM), MMP-8 inhibitor 1 (8 nM) or the same volume of the corresponding control compound, control IgG or neutralizing anti-MMP-13 antibody (R& D Systems, Minneapolis, Minn., both at 12 μg/ml) or chloroquine (10 μM) were also added to both upper and lower wells. The cells were allowed to invade for 18 h, after which the inserts were removed and stained with the Hema 3 Stain set (Fisher Diagnostics, Middletown, Pa.), according to the manufacturer's recommendation. The number of invaded cells was counted from 5 pre-selected microscopic fields using a 40× objective. To assess invasion in a three-dimensional type I collagen gel, acid solubilized type I collagen (0.9 ml) was added to the Costar Transwell dishes (Corning, Inc., Corning, N.Y.) and gelled over 45 min at 37° C. The collagen was prepared using rat-tail type 1 collagen dissolved in 0.2% acetic acid at 3.2 mg/ml and gelled by neutralizing the acid with 0.3 N NaOH containing phenol red as a pH indicator. A final concentration of 3.0 mg/ml was obtained. Media, containing vehicle or 10 μM type C CpG-ODN was men added to the upper and lower chambers prior to the addition of 5×10^5 cells to the surface of the collagen gel in the presence of serum-containing medium. […] Tumor cell invasion (depth and number of cells below the surface) was assessed by light microscopy in a minimum of four randomly selected sections for each experimental sample. The number of invading cells per high power field (400×) were counted and averaged. The depth of invasion was also measured in four randomly selected areas for each sample using photomicrograph of each sample.

[2] = tested on: MMP-activity in MDA-MB-231 cells; assay: gelatin zymogram of MDA-MB-231 supernatants; conditions: 2 μM added to final incubation of gels
Protocol: Zymograms. The zymograms were performed as previously described (Suarex-Cuervo et al., Clin. Exp. Metastasis 21:525-33 (2004)). In this assay, the gelatinolytic bands represent the following MMPs: 120 kDa band represents MMP-9 and neutrophil gelatinase associated lipocalin complex, 90 kDa band represents pro-MMP-9 and the 72 kDa band represents proMMP-2. Briefly, MDA-MB-231 cells were plated on 12-well plates and allowed to reach confluency. The cells were then rinsed with PBS and serum-free medium, with the indicated concentrations of type C CpG-ODNs, type C non-CpG-ODNs or vehicle was applied for 24 h.

[3] = tested on: PC-3 cells; assay: Matrigel invasion assay, PC-3 cells
Protocol: In vitro invasion assays. For the Matrigel-invasion assay the cells were plated at the density of 5×10^4 (PC-3, Du-145, LnCaP and MDA PCa 2b) cells per upper well in 500 μl of normal culture medium, Indicated concentrations of the various CpG-ODNs, bacterial DNA (E. Coli, Sigma, St. Louis, Mo.) or vehicle were added to both the upper and lower wells. When indicated, p38- or JNK-inhibitor (both at final concentration of 10^−5 M), control IgG or neutralizing anti-MMP-13 antibody (R&. D Systems, Minneapolis, Minn., both at 12 μg/ml) or chloroquine (10 μM) were also added to both upper and lower wells. […] The number of invaded cells were counted from 5 pre-selected microscopic fields using a 40× objective.

[4] = tested on: NFκB reporter gene; assay: NFκB reporter gene assay in transfected MDA-MB-231 pools
Protocol: MDA-MB-231 cells were stably transfected with pIRES-EGFP empty vector (EV) or with pIRES-EGFP-TRAF6DN-Flag. Stable pools were Flow-sorted for the expression of EGFP for 3 cycles. […] The same blots were stripped and re-blotted with antibodies against Flag, GFP and actin. For FIG. 12B, the various cells were transiently transfected with a NFκB reporter gene and treated with CpG-ODN or TNF-α. Reporter gene activation was calculated as fold-increase vs. vehicle-treatment. Mean±SD, n=6. * p<0.05, *** p<0.001 pIRES-EV vs. pIRES-EGFP-TRAF6DN. For FIG. 12C, the pIRES-EGFP and pIRES-EGFP-TRAF6DN cells were plated on Matrigel-assays and treated with vehicle or with 2 or 10 μM Non-CpG-ODN or CpG-ODN, The number of invaded cells were counted microscopically 22 h later. Data are expressed as fold-increase in treatment-induced invasion, mean±sd, n±3-6. * p<0.05, ** p<0.01 pIRES-EGFP vs. pIRES-EGFP-TRAF6DN.
Stable transfection of TRAF6 into MDA-MB-231 breast cancer cells. The cDNA encoding for dominant negative TRAF6 has been described previously (Yeo et al., (2003) J. Biol. Chem. 278:22563-22573). The pIRES-EGF-DNTRAF6-Flag and pIRES-EGF were stably transfected into the MDA-MB-231 cells. The established stable pools were submitted to three cycles of Flow-sorting for highest emission of GFP, to enrich the populations of transfected cells. […]

[5] = tested on: MCF-7 breast cancer cells; assay: Matrigel invasion assay, MCF-7 cells; conditions: 1 and 10 μM
Protocol: as §1, with “objective.” for “objective. To assess invasion in a three-dimensional type I collagen gel, acid solubilized type I collagen (0.9 ml) was added to the Costar Transwell dishes (Corning, Inc., Corning, N.Y.) and gelled over 45 min at 37° C. The collagen was prepared using rat-tail type 1 collagen dissolved in 0.2% acetic acid at 3.2 mg/ml and gelled by neutralizing the acid with 0.3 N NaOH containing phenol red as a pH indicator. A final concentration of 3.0 mg/ml was obtained. Media, containing vehicle or 10 μM type C CpG-ODN was men added to the upper and lower chambers prior to the addition of 5×10^5 cells to the surface of the collagen gel in the presence of serum-containing medium.”

[6] = tested on: MDA-MB-231, T47-D or MCF-7 cells; assay: MTS cell viability assay, breast cancer cells
Protocol: Cell viability assays. MDA-MB-231, T47-D or MCF-7 cells were plated at the density of 1000 cells/well in 96-well plates in normal culture medium, and cultured for the indicated periods of time with 10 μM type C CpG-ODN or vehicle. Cell viability was assessed after MTS was added for the final 2 hours of the experimental cultures as recommended by the manufacturer (CellTiter 96 AQueous Non-Radioactive Cell Proliferation Assay, Promega, Madison, Wis.).

[7] = tested on: MCF-10A mammary epithelial cells; assay: Matrigel invasion assay, MCF-10A cells; conditions: 1 and 10 μM

## CNC(=O)[C@H](Cc1c[nH]c2ccccc12)NC(=O)[C@@H](CC(=O)NO)CC(C)C [GM6001]
[1]; inhibitor 2 μM, type C CpG-ODN 10 μM
  effect on type C CpG-induced invasion of MDA-MB-231 cells: inhibited CpG-ODN-induced invasion; also recorded: inhibited by the MMP inhibitor
[2]
  effect on CpG-ODN-induced gelatinolytic band of about 50 kDa: abolished; also recorded: did disappear

## CCN(CC)CCCC(C)Nc1ccnc2cc(Cl)ccc12 (stereo not drawn) [chloroquine]
[1]; chloroquine 10 μM, non-CpG-ODN 10 μM, 18 h
  effect on non-CpG-ODN-induced invasion: inhibited
[1]; chloroquine 10 μM, type C CpG-ODN 10 μM, 18 h
  effect on CpG-ODN-induced invasion: blocked; also recorded: inhibited
[3]; chloroquine 10 μM, 1000 ng/ml E. coli DNA, 20 h
  effect of chloroquine on E. coli DNA-induced invasion of PC-3 cells: inhibited
[3]; chloroquine 10 μM, CpG-ODN 5 μM, 18 h
  effect of chloroquine on CpG-ODN-induced invasion of PC-3 cells: significantly inhibited; also recorded: inhibits CpG-ODN-induced invasion

## C[S+]([O-])c1ccc(-c2nc(-c3ccncc3)c(-c3ccc(F)cc3)[nH]2)cc1 (stereo not drawn) [p38 inhibitor, SB203580]
[3]; inhibitor 10^−5 M, CpG-ODN 5 μM, 18 h
  effect of MAP-kinase inhibitors on CpG-ODN-induced invasion of PC-3 cells: Neither of these inhibitors affected CpG-ODN-induced invasion

## TNF-α
[4]; pIRES-EGFP empty vector MDA-MB-231
  NFκβ-promoter activity in empty vector cells: significant increase in NFκβ-promoter activity
[4]; pIRES-EGFP-TRAF6DN MDA-MB-231
  NFκβ-promoter activity in TRAF6DN-pool: blunted

## aprotinin
[2]
  effect on CpG-ODN-induced gelatinolytic band of about 50 kDa: did not disappear; also recorded: not inhibited

## type C non-CpG-ODN: 5′-tgc tgc tgc tig caa gca get tga t-3′ (SEQ ID NO:6), non-CpG-ODN control (DNA dT*dG*dC*dT*dG*dC*dT*dG*dC*dT*dT*dG*dC*dA*dA*dG*dC*dA*dG*dC*dT*dT*dG*dA*dT)
[5]
  invasion of TLR9 negative MCF-7 cells: did not, however, stimulate invasion
[5]; listed as non-CpG-ODN
  invasion of TLR9 negative MCF-7 cells: no significant effect
[6]
  cell viability (MTS), longer incubation: significantly decreased viability
[7]
  invasion of MCF-10A cells: stimulated invasion
[7]; listed as non-CpG-ODN
  invasion of MCF-10A cells: induced a significant invasion response
